Measured values as given in paper PMC3747596 (PLoS ONE, 2013).
Like-named read-outs stand apart in the source and are kept apart here.

Legend:
H3 = H3 (Cavia porcellus, UniProt Q9JI35); assay: Radioligand displacement, H3; type: binding, Guinea Pig
M4 = M4 (Homo sapiens, UniProt P08173); assay: Radioligand displacement, M4; type: binding
DAT = DAT (Homo sapiens, UniProt Q01959); assay: Radioligand displacement, DAT
SERT = SERT (Homo sapiens, UniProt P31645); assay: Radioligand displacement, SERT; type: binding
β1 = β1 (Homo sapiens, UniProt P08588); assay: Radioligand displacement, β1; type: binding
β1, sequence (P08588 whole entry): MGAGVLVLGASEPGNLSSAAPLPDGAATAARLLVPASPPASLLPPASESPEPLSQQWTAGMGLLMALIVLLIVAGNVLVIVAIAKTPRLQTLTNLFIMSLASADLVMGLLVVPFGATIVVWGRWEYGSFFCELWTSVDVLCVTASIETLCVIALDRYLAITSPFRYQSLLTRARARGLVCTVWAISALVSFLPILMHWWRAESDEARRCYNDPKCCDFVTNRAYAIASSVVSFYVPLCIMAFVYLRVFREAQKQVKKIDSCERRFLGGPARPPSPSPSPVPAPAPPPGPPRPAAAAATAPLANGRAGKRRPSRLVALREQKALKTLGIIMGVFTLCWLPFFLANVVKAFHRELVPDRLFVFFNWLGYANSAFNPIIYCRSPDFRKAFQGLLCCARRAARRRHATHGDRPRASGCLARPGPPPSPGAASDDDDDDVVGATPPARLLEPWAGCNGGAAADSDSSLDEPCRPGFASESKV

M3 = M3 (Homo sapiens, UniProt P20309); assay: Radioligand displacement, M3; type: binding
M3, sequence (P20309 whole entry): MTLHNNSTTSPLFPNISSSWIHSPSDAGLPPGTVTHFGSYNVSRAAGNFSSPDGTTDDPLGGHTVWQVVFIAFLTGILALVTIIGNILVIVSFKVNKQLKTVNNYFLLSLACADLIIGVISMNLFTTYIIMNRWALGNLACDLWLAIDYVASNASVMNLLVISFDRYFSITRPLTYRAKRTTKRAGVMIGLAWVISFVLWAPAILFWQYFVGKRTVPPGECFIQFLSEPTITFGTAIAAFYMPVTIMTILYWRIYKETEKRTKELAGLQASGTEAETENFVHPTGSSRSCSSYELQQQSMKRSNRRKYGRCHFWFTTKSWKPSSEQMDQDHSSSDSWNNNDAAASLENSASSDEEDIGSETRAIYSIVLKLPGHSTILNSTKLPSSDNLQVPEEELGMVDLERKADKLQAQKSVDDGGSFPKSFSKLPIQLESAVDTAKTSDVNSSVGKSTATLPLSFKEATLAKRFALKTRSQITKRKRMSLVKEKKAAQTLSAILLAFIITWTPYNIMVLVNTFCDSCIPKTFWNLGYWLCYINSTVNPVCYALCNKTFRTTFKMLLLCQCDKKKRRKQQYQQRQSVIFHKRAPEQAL

α1D = target: T1, α1D (Homo sapiens, UniProt P25100); assay: Radioligand displacement, α1D; type: binding
T1 sequence (P25100 1-572): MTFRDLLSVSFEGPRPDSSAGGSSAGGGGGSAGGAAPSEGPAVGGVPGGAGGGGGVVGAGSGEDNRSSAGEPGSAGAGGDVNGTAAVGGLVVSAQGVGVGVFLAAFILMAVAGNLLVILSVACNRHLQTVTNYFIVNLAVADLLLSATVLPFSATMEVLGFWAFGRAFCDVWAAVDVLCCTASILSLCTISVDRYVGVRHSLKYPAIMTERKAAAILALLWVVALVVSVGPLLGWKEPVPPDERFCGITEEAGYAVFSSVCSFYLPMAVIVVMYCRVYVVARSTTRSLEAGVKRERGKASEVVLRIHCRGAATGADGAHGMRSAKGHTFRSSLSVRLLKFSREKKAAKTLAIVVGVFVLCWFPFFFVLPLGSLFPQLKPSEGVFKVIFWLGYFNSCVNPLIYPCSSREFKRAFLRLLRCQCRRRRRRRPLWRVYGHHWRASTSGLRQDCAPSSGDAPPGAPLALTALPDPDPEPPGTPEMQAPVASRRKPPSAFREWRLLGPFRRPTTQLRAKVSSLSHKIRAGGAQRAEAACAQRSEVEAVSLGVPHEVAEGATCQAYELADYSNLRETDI

[1] = target: M1 muscarinic receptors (M1-R) (Homo sapiens, UniProt P11229); assay: Radioligand displacement, M1; type: binding
M1 muscarinic receptors (M1-R), sequence (P11229 whole entry): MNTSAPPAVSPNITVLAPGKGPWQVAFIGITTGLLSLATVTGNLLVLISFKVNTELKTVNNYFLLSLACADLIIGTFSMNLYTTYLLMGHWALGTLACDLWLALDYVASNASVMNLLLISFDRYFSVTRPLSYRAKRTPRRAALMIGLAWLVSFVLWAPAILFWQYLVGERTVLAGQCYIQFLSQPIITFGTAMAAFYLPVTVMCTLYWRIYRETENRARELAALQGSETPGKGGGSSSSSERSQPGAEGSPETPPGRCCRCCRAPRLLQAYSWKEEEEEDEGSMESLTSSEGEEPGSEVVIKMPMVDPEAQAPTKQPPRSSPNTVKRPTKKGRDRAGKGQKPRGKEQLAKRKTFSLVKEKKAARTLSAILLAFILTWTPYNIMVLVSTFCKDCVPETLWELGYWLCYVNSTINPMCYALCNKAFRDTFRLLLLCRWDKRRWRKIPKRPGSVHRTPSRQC

M2 = M2 (Homo sapiens, UniProt P08172); assay: biochemical; type: binding
M2, sequence (P08172 whole entry): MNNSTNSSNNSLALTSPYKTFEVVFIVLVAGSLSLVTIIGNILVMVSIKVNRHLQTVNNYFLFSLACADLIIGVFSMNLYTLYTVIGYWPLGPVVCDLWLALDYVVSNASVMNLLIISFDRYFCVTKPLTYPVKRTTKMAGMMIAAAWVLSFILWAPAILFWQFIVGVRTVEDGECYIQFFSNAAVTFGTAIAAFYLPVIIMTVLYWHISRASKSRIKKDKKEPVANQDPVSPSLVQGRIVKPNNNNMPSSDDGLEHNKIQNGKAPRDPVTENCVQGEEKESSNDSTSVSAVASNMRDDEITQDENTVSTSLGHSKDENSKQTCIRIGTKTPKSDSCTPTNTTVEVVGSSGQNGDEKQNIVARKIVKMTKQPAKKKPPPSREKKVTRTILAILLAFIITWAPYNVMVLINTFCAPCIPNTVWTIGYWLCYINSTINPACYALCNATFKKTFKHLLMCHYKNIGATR

[2] = target: NMDA receptors, phencyclidine (cation channel) site; assay: Radioligand displacement, NMDA; type: binding, Rat; details: for Ki: [3H] radioligand MK801, Rat, Brain
human NOP = target: T2, human NOP (Homo sapiens, UniProt P41146); assay: NOP binding against [3H]N/OFQ, HEK293T membranes
T2 construct: expressed in transfected cells; host or cells: HEK293T
T2 sequence (P41146 whole entry): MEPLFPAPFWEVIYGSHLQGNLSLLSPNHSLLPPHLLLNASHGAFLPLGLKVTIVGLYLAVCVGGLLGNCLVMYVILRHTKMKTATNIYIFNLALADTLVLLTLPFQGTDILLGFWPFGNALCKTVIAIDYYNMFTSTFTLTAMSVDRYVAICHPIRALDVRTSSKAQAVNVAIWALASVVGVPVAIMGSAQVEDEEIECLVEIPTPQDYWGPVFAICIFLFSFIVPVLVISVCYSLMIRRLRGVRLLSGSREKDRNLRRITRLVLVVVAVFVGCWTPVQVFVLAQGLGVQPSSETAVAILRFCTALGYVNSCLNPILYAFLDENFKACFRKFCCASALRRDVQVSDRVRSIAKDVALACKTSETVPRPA

5-HT1d = 5-HT1d (Homo sapiens, UniProt P28221); assay: Radioligand displacement, 5-HT1d
5-HT1d, sequence (P28221 whole entry): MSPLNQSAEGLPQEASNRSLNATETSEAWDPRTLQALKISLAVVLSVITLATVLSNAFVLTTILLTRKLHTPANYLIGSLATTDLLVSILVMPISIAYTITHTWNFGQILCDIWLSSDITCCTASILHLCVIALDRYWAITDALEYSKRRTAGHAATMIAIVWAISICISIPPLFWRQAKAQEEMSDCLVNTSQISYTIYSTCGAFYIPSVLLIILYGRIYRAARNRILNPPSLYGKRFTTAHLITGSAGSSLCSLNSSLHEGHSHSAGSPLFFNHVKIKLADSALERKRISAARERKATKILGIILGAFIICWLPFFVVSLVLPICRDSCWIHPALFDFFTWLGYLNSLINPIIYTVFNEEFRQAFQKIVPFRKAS

[3] = target: T3, α2C-adrenoceptor (α2C-AR) (Homo sapiens, UniProt P18825); assay: Radioligand displacement, α2C
T3 sequence (P18825 1-462): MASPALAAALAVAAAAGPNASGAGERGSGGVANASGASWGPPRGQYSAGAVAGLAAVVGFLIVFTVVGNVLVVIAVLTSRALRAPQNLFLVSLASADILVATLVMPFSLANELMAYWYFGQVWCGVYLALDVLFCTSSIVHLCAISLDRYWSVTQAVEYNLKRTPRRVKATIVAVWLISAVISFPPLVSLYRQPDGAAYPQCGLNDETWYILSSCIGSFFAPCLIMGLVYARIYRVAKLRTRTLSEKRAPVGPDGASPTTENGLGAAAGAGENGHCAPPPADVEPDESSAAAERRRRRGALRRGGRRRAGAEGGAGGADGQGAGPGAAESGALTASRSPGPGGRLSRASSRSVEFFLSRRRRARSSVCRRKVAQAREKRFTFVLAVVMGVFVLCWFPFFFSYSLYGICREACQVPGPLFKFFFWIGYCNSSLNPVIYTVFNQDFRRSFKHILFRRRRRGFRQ

H1 = H1 (Homo sapiens, UniProt P35367); assay: Radioligand displacement, H1; type: binding
[4] = cited from earlier work
D3 = D3 (Homo sapiens, UniProt P35462); assay: Radioligand displacement, D3; type: binding
5-HT2a = 5-HT2a (Homo sapiens, UniProt P28223); assay: Radioligand displacement, 5-HT2a; type: binding
5-HT2a, sequence (P28223 whole entry): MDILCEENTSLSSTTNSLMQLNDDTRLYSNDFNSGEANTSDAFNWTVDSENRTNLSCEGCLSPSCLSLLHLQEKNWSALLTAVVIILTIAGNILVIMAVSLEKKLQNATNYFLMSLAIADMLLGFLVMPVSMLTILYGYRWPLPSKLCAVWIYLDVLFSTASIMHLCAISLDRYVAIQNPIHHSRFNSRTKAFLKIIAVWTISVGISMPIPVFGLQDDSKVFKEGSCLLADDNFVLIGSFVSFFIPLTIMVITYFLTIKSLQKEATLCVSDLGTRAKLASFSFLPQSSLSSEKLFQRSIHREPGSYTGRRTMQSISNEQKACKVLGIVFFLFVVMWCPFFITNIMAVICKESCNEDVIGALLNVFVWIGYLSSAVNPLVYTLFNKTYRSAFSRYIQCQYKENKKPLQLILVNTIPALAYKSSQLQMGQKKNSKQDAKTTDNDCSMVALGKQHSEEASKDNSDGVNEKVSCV

GABAA (BZP) = assay: Radioligand displacement, GABAA (BZP); type: binding; details: [3H] radioligand Flunitrazepam; Rat, Brain
H2 = H2 (Homo sapiens, UniProt P25021); assay: Radioligand displacement, H2
H2, sequence (P25021 whole entry): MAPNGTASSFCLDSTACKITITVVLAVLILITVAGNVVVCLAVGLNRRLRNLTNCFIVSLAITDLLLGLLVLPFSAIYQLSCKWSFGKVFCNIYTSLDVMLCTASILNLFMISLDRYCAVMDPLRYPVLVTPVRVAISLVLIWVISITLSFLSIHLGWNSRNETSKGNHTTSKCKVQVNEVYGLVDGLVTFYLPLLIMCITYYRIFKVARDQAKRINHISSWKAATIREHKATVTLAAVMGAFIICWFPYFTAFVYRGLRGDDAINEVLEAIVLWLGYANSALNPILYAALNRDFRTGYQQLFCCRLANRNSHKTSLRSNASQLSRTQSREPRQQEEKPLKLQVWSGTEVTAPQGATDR

D5 = D5 (Homo sapiens, UniProt P21918); assay: Radioligand displacement, D5; type: binding
D5, sequence (P21918 whole entry): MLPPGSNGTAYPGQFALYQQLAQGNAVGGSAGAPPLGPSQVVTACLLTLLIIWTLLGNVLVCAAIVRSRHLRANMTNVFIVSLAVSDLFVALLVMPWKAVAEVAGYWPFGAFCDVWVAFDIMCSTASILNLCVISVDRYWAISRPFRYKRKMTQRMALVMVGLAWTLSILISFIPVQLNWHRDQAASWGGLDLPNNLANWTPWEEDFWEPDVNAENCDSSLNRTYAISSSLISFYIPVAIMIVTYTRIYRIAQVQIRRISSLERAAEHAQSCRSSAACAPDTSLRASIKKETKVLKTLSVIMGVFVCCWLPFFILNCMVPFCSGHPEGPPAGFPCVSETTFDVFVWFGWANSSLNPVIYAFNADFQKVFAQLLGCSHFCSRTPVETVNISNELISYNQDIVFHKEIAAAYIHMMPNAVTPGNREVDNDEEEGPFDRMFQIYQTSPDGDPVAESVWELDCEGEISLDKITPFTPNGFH

D1 = D1 (Homo sapiens, UniProt P21728); assay: Radioligand displacement, D1; type: binding
D1, sequence (P21728 whole entry): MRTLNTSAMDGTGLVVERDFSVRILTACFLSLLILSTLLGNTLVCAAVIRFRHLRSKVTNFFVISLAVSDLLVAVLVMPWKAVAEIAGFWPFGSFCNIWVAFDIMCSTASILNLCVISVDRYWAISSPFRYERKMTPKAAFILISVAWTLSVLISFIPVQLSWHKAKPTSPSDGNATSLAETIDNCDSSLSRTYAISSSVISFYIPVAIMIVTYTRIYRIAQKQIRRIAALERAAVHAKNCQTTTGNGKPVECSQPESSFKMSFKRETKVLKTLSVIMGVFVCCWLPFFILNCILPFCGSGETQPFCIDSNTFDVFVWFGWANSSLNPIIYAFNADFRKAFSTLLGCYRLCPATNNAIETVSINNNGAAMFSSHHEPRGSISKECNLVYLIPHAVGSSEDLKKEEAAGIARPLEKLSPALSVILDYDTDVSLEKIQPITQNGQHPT

[5] = Ki, [3H] radioligand QNB, Human, Cloned
[6] = Ki, [3H] radioligand GR125743, Human, Cloned
[7] = K i, α2C, radioligand displacement (Table 1)
[8] = Ki, [3H] radioligand Rauwolscine, Human, Cloned
[9] = K i, D5, radioligand displacement (Table 1)
[10] = Ki, [3H] radioligand SCH23390, Human, Cloned
[11] = [3H] radioligand QNB, Human, Cloned, read-out: Ki
[12] = [3H] radioligand SCH23390, Human, Cloned, read-out: Ki

M4, sequence (P08173 whole entry): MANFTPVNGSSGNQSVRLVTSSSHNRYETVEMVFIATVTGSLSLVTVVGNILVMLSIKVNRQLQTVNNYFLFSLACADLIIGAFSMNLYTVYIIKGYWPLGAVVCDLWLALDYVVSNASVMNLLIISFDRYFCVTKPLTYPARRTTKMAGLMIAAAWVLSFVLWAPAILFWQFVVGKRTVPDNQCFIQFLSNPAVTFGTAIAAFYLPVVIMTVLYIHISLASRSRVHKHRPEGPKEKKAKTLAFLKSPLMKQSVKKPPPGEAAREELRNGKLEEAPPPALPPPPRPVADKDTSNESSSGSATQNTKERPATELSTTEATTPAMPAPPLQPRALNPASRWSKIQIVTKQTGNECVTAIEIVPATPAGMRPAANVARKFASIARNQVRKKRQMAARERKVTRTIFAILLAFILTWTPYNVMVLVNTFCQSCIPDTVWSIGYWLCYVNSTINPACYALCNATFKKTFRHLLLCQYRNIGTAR

SMILES: N=C(N)Nc1ccc2[nH]c3c(c2c1)C[C@@]1(O)[C@H]2Cc4ccc(O)c5c4[C@@]1(CCN2CC1CC1)[C@H]3O5 [GNTI, 5′-guanidinonaltrindole]
- Ki (H3): ≥ 10 µM
- Ki (M4): ≥ 10 µM
- Ki (DAT): ≥ 10 µM
- Ki (SERT): ≥ 10 µM
- Ki (β1): ≥ 10 µM
- Ki (M3): ≥ 10 µM
- Ki (α1D): ≥ 10 µM
- Ki [1]: ≥ 10 µM
- displacement from M1-R ([1]; at 10 µM, [3H]3-quinuclidinyl benzilate (QNB)): 49%
- Ki (M2; [5]): 5.37 µM
- Ki (M2; Ki, binding curve File S1, M2 Receptor, [3H]QNB (0.1 nM), Muscarinic Binding Buffer): 5.36 µM
- Ki (M2; M2, radioligand displacement (Table 1), read-out: K i): 5.4 µM
- Ki [2]: ≥ 10 µM
- Ki (human NOP): 2500 nM
- Ki (5-HT1d; [6]): ≥ 10000 nM
- Ki [3, 7]: 2200 nM
- Ki [3, 8]: 2230 nM
- Ki ([3]; Ki, binding curve File S1, Alpha2C Receptor, [125I]Clonidine (0.12 nM), Alpha2 Binding Buffer): 2230 nM
- Ki (H1): ≥ 10 µM
- estimate of the unbound brain concentration ([4]; after 39 mg/kg): 5 nM
- peak unbound concentration in plasma ([4]; dose 10 mg/kg): 2 µM
- peak unbound concentration in plasma ([4]; dose 39 mg/kg): 8 µM
- decline of plasma concentration ([4]; within 4 hours): over 80%
- decline of plasma concentration ([4]; within 24 hours): over 98%
- Ki (D3): ≥ 10 µM
- Ki (5-HT2a): ≥ 10 µM
- Ki (GABAA (BZP)): ≥ 10 µM
- Ki (H2): ≥ 10000 nM
- Ki (D5; [9]): 8.2 µM
- Ki (D5; [10]): 8.18 µM
- Ki (D1): ≥ 10 µM

SMILES: CC(C)[C@@H](CN1CC[C@@](C)(c2cccc(O)c2)[C@@H](C)C1)NC(=O)[C@H]1Cc2ccc(O)cc2CN1 [JDTic]
- Ki (H3; [3H] radioligand α-methylhistamine, Guinea Pig, Cloned, read-out: Ki): ≥ 10 µM
- Ki (M4; [11]): ≥ 10 µM
- Ki (DAT; K i, DAT, radioligand displacement (Table 1)): 4.4 µM
- Ki (DAT; Ki, [3H] radioligand WIN35428, Human, Cloned): 4.37 µM
- Ki (DAT; Ki, binding curve File S1, Dopamine Transporter, [3H]WIN35428 (3 nM), Transporter Binding Buffer): 4.37 µM
- Ki (SERT; [3H] radioligand Citalopram, Human, Cloned, read-out: Ki): ≥ 10 µM
- Ki (β1; [3H] radioligand CGP12177, Human, Heart, read-out: Ki): ≥ 10 µM
- Ki (M3; [11]): ≥ 10 µM
- Ki (α1D; read-out: Ki): ≥ 10 µM
- Ki [1, 11]: ≥ 10 µM
- Ki (M2; [11]): ≥ 10 µM
- Ki (M2; binding curve File S1, M2 Receptor, [3H]QNB (0.1 nM), Muscarinic Binding Buffer, read-out: Ki): > 10 µM
- Ki [2]: ≥ 10 µM
- Ki (human NOP; NOP, displacing [3H]N/OFQ (Table 1), read-out: K i): 12 nM
- Ki (5-HT1d): ≥ 10000 nM
- Ki [3]: ≥ 10000 nM
- Ki (H1; [3H] radioligand Pyrilamine, Human, Cloned, read-out: Ki): ≥ 10 µM
- peak unbound concentration in plasma ([4]; dose 10 mg/kg): 0.1 µM
- decline of plasma concentration ([4]; within 4 hours): over 80%
- decline of plasma concentration ([4]; within 24 hours): over 98%
- Ki (D3; [3H] radioligand N-Methylspiperone, Human, Cloned, read-out: Ki): ≥ 10 µM
- Ki (5-HT2a; [3H] radioligand Ketanserin, Human, Cloned, read-out: Ki): ≥ 10 µM
- Ki (GABAA (BZP)): ≥ 10 µM
- Ki (H2; K i, H2, radioligand displacement (Table 1)): 1800 nM
- Ki (H2; Ki, [3H] radioligand Tiotidine, Human, Cloned): 1790 nM
- Ki (H2; Ki, binding curve File S1, H2 Receptor, [3H]Tiotidine (3 nM), Histamine Binding Buffer): 1790 nM
- Ki (D5; [12]): ≥ 10 µM
- Ki (D1; [12]): ≥ 10 µM

SMILES: Oc1ccc2c3c1O[C@H]1c4[nH]c5c(c4C[C@@]4(O)[C@@H](C2)N(CC2CC2)CC[C@]314)C[C@@]1(O)[C@H]2Cc3ccc(O)c4c3[C@@]1(CCN2CC1CC1)[C@H]5O4 [nor-BNI, Nor-binaltorphimine]
- Ki (H3): ≥ 10 µM
- Ki (M4): ≥ 10 µM
- Ki (DAT): ≥ 10 µM
- Ki (SERT): ≥ 10 µM
- Ki (β1): ≥ 10 µM
- Ki (M3): ≥ 10 µM
- Ki (α1D): ≥ 10 µM
- Ki [1]: ≥ 10 µM
- Ki (M2; [5]): ≥ 10 µM
- Ki [2]: ≥ 10 µM
- displacement of [3H]MK-801 from the phencyclidine (cation channel) site ([2]; at 10 µM): did not displace
- Ki (human NOP): 4400 nM
- Ki (5-HT1d; K i, 5-HT1d, radioligand displacement (Table 1)): 1100 nM
- Ki (5-HT1d; [6]): 1130 nM
- Ki [3, 7]: 630 nM
- Ki [3, 8]: 626 nM
- Ki (H1): ≥ 10 µM
- peak unbound concentration in plasma ([4]; dose 10 mg/kg): 3 µM
- decline of plasma concentration ([4]; within 4 hours): over 80%
- decline of plasma concentration ([4]; within 24 hours): over 98%
- Ki (D3): ≥ 10 µM
- Ki (5-HT2a): ≥ 10 µM
- Ki (GABAA (BZP)): ≥ 10 µM
- Ki (H2): ≥ 10000 nM
- Ki (D5; [9]): 3.9 µM
- Ki (D5; [10]): 3.92 µM
- Ki (D5; Ki, binding curve File S1, Dopamine5 Receptor, [3H]SCH23390 (1.2 nM), Dopamine Binding Buffer): 3.92 µM
- Ki (D1): ≥ 10 µM
